According to US7947706B2, “Substituted pyrrolopyridines, compositions containing them, manufacturing process therefor and use thereof” (Sanofi-Aventis Deutschland GmbH, priority 2005, dated 2011):

Assays:
KDR = target: T1, KDR (Homo sapiens, UniProt P35968); experiment: KDR substrate phosphorylation test, scintillation technique; type: biochemical; conditions: GST-KDR cytoplasmic domain, PLCγ SH2-SH3 substrate, 33P-ATP, 1 hour at 37° C.
T1 construct: The cytoplasmic domain of the human KDR enzyme; GST; made in house; host or cells: SF21 insect cells (baculovirus, pFastBac)
T1 sequence (P35968 786-1356 limits assumed): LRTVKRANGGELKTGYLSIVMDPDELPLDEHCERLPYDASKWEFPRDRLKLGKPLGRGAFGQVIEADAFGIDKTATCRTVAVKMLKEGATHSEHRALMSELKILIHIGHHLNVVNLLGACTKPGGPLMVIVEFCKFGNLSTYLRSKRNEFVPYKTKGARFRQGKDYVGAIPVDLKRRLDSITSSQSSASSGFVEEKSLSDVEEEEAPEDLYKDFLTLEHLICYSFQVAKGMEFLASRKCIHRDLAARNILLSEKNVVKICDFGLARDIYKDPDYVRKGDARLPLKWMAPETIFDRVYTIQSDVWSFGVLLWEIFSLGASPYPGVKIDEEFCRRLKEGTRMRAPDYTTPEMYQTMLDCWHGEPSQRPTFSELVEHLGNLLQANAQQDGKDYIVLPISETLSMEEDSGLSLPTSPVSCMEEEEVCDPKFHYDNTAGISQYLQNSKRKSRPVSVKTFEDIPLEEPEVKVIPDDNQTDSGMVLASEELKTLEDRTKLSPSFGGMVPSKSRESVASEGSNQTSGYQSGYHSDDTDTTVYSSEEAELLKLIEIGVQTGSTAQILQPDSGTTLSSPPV
Procedure: The inhibitory effect of the compounds is determined in an in vitro test of phosphorylation of substrate with the enzyme KDR via a scintillation technique (96-well plate, NEN).
The cytoplasmic domain of the human KDR enzyme was cloned in the form of a GST fusion in the pFastBac baculovirus expression vector. The protein was expressed in the SF21 cells and purified to about 60% homogeneity.
The KDR kinase activity is measured in 20 mM MOPS, 10 mM MgCl2, 10 mM MnCl2, 1 mM DTT, 2.5 mM EGTA, 10 mM b-glycerophosphate, pH=7.2, in the presence of 10 mM MgCl2, 100 μm Na3VO4, 1 mM NaF. 10 μl of the compound are added to 70 μl of kinase buffer containing 100 ng of KDR enzyme at 4° C. The reaction is initiated by adding 20 μl of solution containing 2 μg of substrate (SH2-SH3 fragment of PLCγ expressed in the form of a GST fusion protein), 2 μCi of γ^33P[ATP] and 2 μm of cold ATP. After incubation for 1 hour at 37° C., the reaction is stopped by adding 1 volume (100 μl) of 200 mM EDTA. The incubation buffer is removed, and the wells are washed three times with 300 μl of PBS. The radioactivity in each well is measured using a Top Count NXT radioactivity counter (Packard).
The background noise is determined by measuring the radioactivity in four different wells containing radioactive ATP and the substrate alone.
A total activity control is measured in four different wells containing all the reagents (γ^33P-[ATP], KDR and substrate PLCγ), but in the absence of compound.
The inhibition of the KDR activity with the compound of the invention is expressed as a percentage of inhibition of the control activity determined in the absence of compound.
Compound SU5614 (Calbiochem) (1 μM) is included in each plate as an inhibition control.

FAK = target: T2, FAK (Homo sapiens, UniProt Q05397); experiment: FAK autophosphorylation inhibition, time-resolved fluorescence test (HTRF); type: biochemical; conditions: autophosphorylation of His-tagged human FAK, 15 μM ATP, 1 hour at 37° C.
T2 construct: The whole cDNA of human FAK; made in house; host or cells: baculovirus expression (pFastBac HTc)
T2 sequence (Q05397 whole entry): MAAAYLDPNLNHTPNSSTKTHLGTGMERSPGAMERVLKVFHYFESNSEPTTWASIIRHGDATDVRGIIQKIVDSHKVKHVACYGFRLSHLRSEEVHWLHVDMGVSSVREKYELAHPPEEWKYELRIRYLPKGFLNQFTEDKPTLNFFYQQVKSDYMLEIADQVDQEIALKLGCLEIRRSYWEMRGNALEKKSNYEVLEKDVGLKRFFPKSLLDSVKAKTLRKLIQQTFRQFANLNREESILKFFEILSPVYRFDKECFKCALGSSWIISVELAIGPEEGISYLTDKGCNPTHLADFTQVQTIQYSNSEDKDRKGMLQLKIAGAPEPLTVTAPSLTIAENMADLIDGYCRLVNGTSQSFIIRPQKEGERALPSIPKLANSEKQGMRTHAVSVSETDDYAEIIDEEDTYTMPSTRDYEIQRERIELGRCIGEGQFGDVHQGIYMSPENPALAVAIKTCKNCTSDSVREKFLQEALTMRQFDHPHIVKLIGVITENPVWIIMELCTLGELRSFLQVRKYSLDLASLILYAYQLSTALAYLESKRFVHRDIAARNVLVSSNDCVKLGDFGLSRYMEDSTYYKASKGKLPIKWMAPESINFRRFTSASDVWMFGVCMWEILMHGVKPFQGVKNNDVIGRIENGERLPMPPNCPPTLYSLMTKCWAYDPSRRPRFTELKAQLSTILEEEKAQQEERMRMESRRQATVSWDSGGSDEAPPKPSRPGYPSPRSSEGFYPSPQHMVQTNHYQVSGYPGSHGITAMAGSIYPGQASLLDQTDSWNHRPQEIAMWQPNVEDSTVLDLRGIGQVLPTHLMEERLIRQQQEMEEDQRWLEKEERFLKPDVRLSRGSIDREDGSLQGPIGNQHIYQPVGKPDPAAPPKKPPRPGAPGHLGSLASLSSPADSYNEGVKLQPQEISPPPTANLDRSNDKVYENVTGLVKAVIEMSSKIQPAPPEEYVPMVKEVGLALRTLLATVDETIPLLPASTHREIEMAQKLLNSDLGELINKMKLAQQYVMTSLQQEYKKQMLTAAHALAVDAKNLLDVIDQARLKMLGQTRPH
Procedure: The inhibitory activity of the compounds on FAK is determined by measuring the inhibition of autophosphorylation of the enzyme using a time-resolved fluorescence test (HTRF).
The whole cDNA of human FAK, the N-terminal end of which has been labelled with histidine, was cloned in a pFastBac HTc baculovirus expression vector. The protein was expressed and purified to about 70% homogeneity.
The kinase activity is determined by incubating the enzyme (6.6 μg/ml) with different concentrations of test compound in a 50 mM Hepes pH=7.2, 10 mM MgCl2, 100 μm Na3VO4, 15 μM ATP buffer for 1 hour at 37° C. The enzymatic reaction is stopped by adding Hepes pH=7.0 buffer containing 0.4 mM KF, 133 mM EDTA, 0.1% BSA and the labelling is performed, for 1 to 2 hours at room temperature, by adding to this buffer an anti-Histidine antibody labelled with XL665 and a tyrosine phosphospecific monoclonal antibody conjugated to europium cryptate (Eu—K). The characteristics of the two fluorophores are available in G. Mathis et al., Anticancer Research, 1997, 17, pages 3011-3014. The energy transfer from the excited europium cryptate to the acceptor XL665 is proportional to the degree of autophosphorylation of FAK. The long-lasting signal specific for XL-665 is measured in a Packard Discovery plate counter. All the tests are performed in duplicate and the average of the two tests is calculated. The inhibition of the autophosphorylation activity of FAK with compounds of the invention is expressed as a percentage of inhibition relative to a control whose activity is measured in the absence of test compound. To calculate the percentage inhibition, the ratio [signal at 665 nm/signal at 620 nm] is considered.

Row | Compound | melting point [°C] | IC50 (KDR) [nM] | IC50 (FAK) [nM]
1 | COc1ccc(C)cc1NC(=O)Nc1ccc(-c2c(C(N)=O)[nH]c3cnccc23)cc1 [Example 2, 3-{4-[3-(2-Methoxy-5-methylphenyl)ureido]phenyl}-1H-pyrrolo[2,3-c]pyridine-2-carboxamide] | 227 | 150 | 299
2 | Cc1ccc(F)c(NC(=O)Nc2ccc(-c3c(C(N)=O)[nH]c4cnccc34)cc2)c1.O=C(O)C(F)(F)F [Example 5, 3-{4-[3-(2-Fluoro-5-methylphenyl)ureido]phenyl}-1H-pyrrolo[2,3-c]pyridine-2-carboxamide trifluoroacetate] | 222 | 258 | 249
3 | NC(=O)c1[nH]c2ncccc2c1-c1ccc(NC(=O)Nc2cc(C(F)(F)F)ccc2F)cc1 [Example 7, 3-{4-[3-(2-Fluoro-5-trifluoromethylphenyl)ureido]phenyl}-1H-pyrrolo[2,3-b]pyridine-2-carboxamide] | 232 | 34 | 184
4 | NC(=O)c1[nH]c2cnccc2c1-c1ccc(NC(=O)Nc2cc(C(F)(F)F)ccc2F)cc1 [Example 1, 3-{4-[3-(2-Fluoro-5-trifluoromethylphenyl)ureido]phenyl}-1H-pyrrolo[2,3-c]pyridine-2-carboxamide] | 286 | 29 | 164
